Test results: ChEMBL document CHEMBL1155667, “A cytotoxic 5alpha,8alpha-epidioxysterol from a soft coral Sinularia species” (2000)
In brackets after ≈: the same amount, converted by molar mass.

What was measured:
Type in all cases: functional
Conditions in all cases: read-out: ED50 (the source's name)
[1] = test system: A549; test: Cytotoxicity against human A549 cells by modified MTT assay
[2] = test system: P388; test: Cytotoxicity against mouse P388 cells by modified MTT assay
[3] = test system: HT-29; test: Cytotoxicity against human HT29 cells by modified MTT assay
[4] = test system: KB; test: Cytotoxicity against human KB cells by modified MTT assay

SMILES | EC50 [1] [µg/mL] | EC50 [2] [µg/mL] | EC50 [3] [µg/mL] | EC50 [4] [µg/mL]
CC(C)[C@@H](C)[C@H]1C[C@@H]1[C@@H](C)[C@H]1CC[C@@H]2[C@]1(C)CC[C@H]1[C@]23C=C[C@]2(C[C@@H](O)CC[C@]12C)OO3 | 2.7 (≈ 6.1 µM) | 0.4 (≈ 0.904 µM) | 1.4 (≈ 3.16 µM) | 2.1 (≈ 4.74 µM)
CC(=O)[C@H]1CC[C@H]2[C@@H]3CC=C4C[C@@H](O)CC[C@]4(C)[C@H]3CC[C@]12C [PREGNENOLONE] | 8.6 (≈ 27.2 µM) | 7.8 (≈ 24.6 µM) | 0.7 (≈ 2.21 µM) | > 50
C=C(CC[C@@H](C)[C@H]1CC[C@H]2[C@@H]3C[C@@H](O)[C@@]4(O)C[C@@H](O)C[C@H](O)[C@]4(C)[C@H]3CC[C@]12C)C(C)C | 10.8 (≈ 24.1 µM) | 8.3 (≈ 18.5 µM) | 1.5 (≈ 3.34 µM) | 1.9 (≈ 4.23 µM)
